Source: article PMC4297217 (Therapeutic Drug Monitoring, 2015)

Tests used:
[1] = Citalopram serum concentration-to-dose
[2] = Escitalopram serum concentration-to-dose; details: patients aged 80 years; combined linear and square age model
[3] = Sertraline serum concentration-to-dose; type: in vivo, patients; details: concomitant PPI vs control group without PPI
[4] = with omeprazole, cited from earlier work

CN(C)CCCC1(c2ccc(F)cc2)OCc2cc(C#N)ccc21 (stereo not drawn) [Citalopram, citalopram]
Citalopram C/D ratio, age effect ([1]; patients aged 80 years, combined linear and square age model): roughly doubled

CN(C)CCC[C@@]1(c2ccc(F)cc2)OCc2cc(C#N)ccc21 [Escitalopram, escitalopram]
Escitalopram C/D ratio, age effect [2]: roughly doubled

Cc1c(OCC(F)(F)F)ccnc1C[S+]([O-])c1nc2ccccc2[nH]1 (stereo not drawn) [Lansoprazole, lansoprazole]
Expected Sertraline C/D Ratio Percent Change [3]: no significant differences

COc1ccc2[nH]c([S+]([O-])Cc3ncc(C)c(OC)c3C)nc2c1 (stereo not drawn) [Omeprazole, omeprazole]
increase in the concentration of R-citalopram ([4]; 9 healthy subjects): 25% | increase in the concentration of S-citalopram ([4]; 9 healthy subjects): ~2 fold | mean increase in the plasma concentration of escitalopram ([4]; healthy volunteers): ~100% | Expected Sertraline C/D Ratio Percent Change [3]: no significant differences

COc1ccnc(C[S+]([O-])c2nc3ccc(OC(F)F)cc3[nH]2)c1OC (stereo not drawn) [Pantoprazole, pantoprazole]
Expected Sertraline C/D Ratio Percent Change [3]: no significant differences | Expected Citalopram C/D Ratio Percent Change ([1]; concomitant PPI vs control group without PPI): No significant effect
